# System: HIV with mutations in the HIV protease sequence
# Assay: Phenotypic fold resistance to protease inhibitors, protease mutations 84A/84L/84C/54M/54L/54V in a background (Examples 8-13)
# Format: cell-based, HIV-1
# Outline: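 Fold-resistance equals chimeric-virus IC50 divided by IC50 of a parallel wild-type reference HIV-1 strain. Chimeras come from PCR-amplified PR/RT genes recombined into PR/RT-deleted HXB2 proviral DNA inside CD4+ T cells, then cultured with graded drug concentrations.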
compound,measurement,setting,value
"CC(C)(C)NC(=O)[C@@H]1C[C@@H]2CCCC[C@@H]2CN1C[C@@H](O)[C@H](Cc1ccccc1)NC(=O)[C@H](CC(N)=O)NC(=O)c1ccc2ccccc2n1 [Saquinavir, saquinavir]",Fold change in IC50,"Table 12, V055199, genotype 10I + 33F + 54M + 90M",5.6 fold
same,Fold change in IC50,"Table 13, V19263, genotype 77I",0.3 fold
same,Fold change in IC50,"Table 13, V20160, genotype WT",0.9 fold
same,Fold change in IC50,"Table 13, V021667, genotype 10I",0.9 fold
same,Fold change in IC50,"Table 13, V030496, genotype 10I + 77I",0.3 fold
same,Fold change in IC50,"Table 13, V048868, genotype 10I + 54L + 71V + 77I + 90M",16.5 fold
same,Fold change in IC50,"Table 13, V048874, genotype 10I + 33F + 54L + 71V + 77I + 90M",4.6 fold
same,Fold change in IC50,"Table 13, V048875, genotype 10I + 33F + 54L + 71V + 77I + 90M",12.0 fold
same,Fold change in IC50,"Table 13, V048877, genotype 10I + 33F + 77I + 90M",1.5 fold
same,Fold change in IC50,"Table 13, V048880, genotype 10I + 33F + 77I + 90M",2.7 fold
same,Fold change in IC50,"Table 13, V052940, genotype 71V",0.8 fold
same,Fold change in IC50,"Table 13, V052942, genotype 10I + 71V",0.8 fold
same,Fold change in IC50,"Table 13, V052943, genotype 10I + 90M",1.1 fold
same,Fold change in IC50,"Table 13, V052944, genotype 10I + 90M",0.7 fold
same,Fold change in IC50,"Table 13, V052945, genotype 77I + 90M",1.4 fold
same,Fold change in IC50,"Table 13, V052946, genotype 71V + 90M",1.4 fold
same,Fold change in IC50,"Table 13, V052947, genotype 10I + 77I + 90M",3.9 fold
same,Fold change in IC50,"Table 13, V052948, genotype 10I + 71V + 90M",4.8 fold
same,Fold change in IC50,"Table 13, V052949, genotype 10I + 71V + 77I + 90M",2.1 fold
same,Fold change in IC50,"Table 13, V052950, genotype 33F",1.2 fold
same,Fold change in IC50,"Table 13, V052951, genotype 33F + 77I",0.4 fold
same,Fold change in IC50,"Table 13, V052953, genotype 10I + 33F + 77I",1.2 fold
same,Fold change in IC50,"Table 13, V052954, genotype 33F + 77I + 90M",1.7 fold
same,Fold change in IC50,"Table 13, V052955, genotype 33F + 71V + 90M",20.4 fold
same,Fold change in IC50,"Table 13, V052968, genotype 10L/I + 33F/L + 54L + 77I",1.5 fold
same,Fold change in IC50,"Table 13, V052969, genotype 10I + 33F + 54L + 90M",1.4 fold
same,Fold change in IC50,"Table 13, V052970, genotype 54L",0.7 fold
same,Fold change in IC50,"Table 13, V052971, genotype 10I + 54L",0.7 fold
same,Fold change in IC50,"Table 13, V052972, genotype 54L + 77I",1.0 fold
same,Fold change in IC50,"Table 13, V052973, genotype 10I + 54L + 77I",0.8 fold
same,Fold change in IC50,"Table 13, V052974, genotype 10I + 54L + 90M",1.1 fold
same,Fold change in IC50,"Table 13, V052975, genotype 10I + 54L + 71V + 90M",24.2 fold
same,Fold change in IC50,"Table 13, V052976, genotype 10I + 54L + 71V + 77I + 90M",1.8 fold
same,Fold change in IC50,"Table 13, V053832, genotype 10I + 33F",0.5 fold
same,Fold change in IC50,"Table 13, V053854, genotype 54L + 71V",0.9 fold
same,Fold change in IC50,"Virco ID 214846, genotype 10I + 33F + 54V + 71V + 77I + 90M, vs mean IC50 of wild type laboratory HIV strain",27.8 fold
same,Fold change in IC50,"Virco ID V021667, genotype 10I, vs mean IC50 of wild type laboratory HIV strain",0.9 fold
same,Fold change in IC50,"Virco ID V030496, genotype 10I + 77I, vs mean IC50 of wild type laboratory HIV strain",0.3 fold
same,Fold change in IC50,"Virco ID V048876, genotype 33F + 54V + 77I + 90M, vs mean IC50 of wild type laboratory HIV strain",1.5 fold
same,Fold change in IC50,"Virco ID V048877, genotype 10I + 33F + 77I + 90M, vs mean IC50 of wild type laboratory HIV strain",1.5 fold
same,Fold change in IC50,"Virco ID V048880, genotype 10I + 33F + 77I + 90M, vs mean IC50 of wild type laboratory HIV strain",2.7 fold
same,Fold change in IC50,"Virco ID V052940, genotype 71V, vs mean IC50 of wild type laboratory HIV strain",0.8 fold
same,Fold change in IC50,"Virco ID V052942, genotype 10I + 71V, vs mean IC50 of wild type laboratory HIV strain",0.8 fold
same,Fold change in IC50,"Virco ID V052943, genotype 10I + 90M, vs mean IC50 of wild type laboratory HIV strain",1.1 fold
same,Fold change in IC50,"Virco ID V052944, genotype 10I + 90M, vs mean IC50 of wild type laboratory HIV strain",0.7 fold
same,Fold change in IC50,"Virco ID V052946, genotype 71V + 90M, vs mean IC50 of wild type laboratory HIV strain",1.4 fold
same,Fold change in IC50,"Virco ID V052947, genotype 10I + 77I + 90M, vs mean IC50 of wild type laboratory HIV strain",3.9 fold
same,Fold change in IC50,"Virco ID V052948, genotype 10I + 71V + 90M, vs mean IC50 of wild type laboratory HIV strain",4.8 fold
same,Fold change in IC50,"Virco ID V052949, genotype 10I + 71V + 77I + 90M, vs mean IC50 of wild type laboratory HIV strain",2.1 fold
same,Fold change in IC50,"Virco ID V052950, genotype 33F, vs mean IC50 of wild type laboratory HIV strain",1.2 fold
same,Fold change in IC50,"Virco ID V052951, genotype 33F + 77I, vs mean IC50 of wild type laboratory HIV strain",0.4 fold
same,Fold change in IC50,"Virco ID V052953, genotype 10I + 33F + 77I, vs mean IC50 of wild type laboratory HIV strain",1.2 fold
same,Fold change in IC50,"Virco ID V052954, genotype 33F + 77I + 90M, vs mean IC50 of wild type laboratory HIV strain",1.7 fold
same,Fold change in IC50,"Virco ID V052955, genotype 33F + 71V + 90M, vs mean IC50 of wild type laboratory HIV strain",20.4 fold
same,Fold change in IC50,"Virco ID V052957, genotype 10I + 33F + 54V + 90M, vs mean IC50 of wild type laboratory HIV strain",1.6 fold
same,Fold change in IC50,"Virco ID V052958, genotype 10I + 33F + 54V + 77I + 90M, vs mean IC50 of wild type laboratory HIV strain",1.0 fold
same,Fold change in IC50,"Virco ID V052959, genotype 10I + 33F + 54V + 77I + 90M, vs mean IC50 of wild type laboratory HIV strain",1.0 fold
same,Fold change in IC50,"Virco ID V052960, genotype 10I + 33F + 54V + 71V + 90M, vs mean IC50 of wild type laboratory HIV strain",21.8 fold
same,Fold change in IC50,"Virco ID V052961, genotype 54V, vs mean IC50 of wild type laboratory HIV strain",1.0 fold
same,Fold change in IC50,"Virco ID V052962, genotype 10I + 54V, vs mean IC50 of wild type laboratory HIV strain",0.9 fold
same,Fold change in IC50,"Virco ID V052963, genotype 54V + 77I + 90M, vs mean IC50 of wild type laboratory HIV strain",1.3 fold
same,Fold change in IC50,"Virco ID V052964, genotype 54V + 71V + 90M, vs mean IC50 of wild type laboratory HIV strain",1.4 fold
same,Fold change in IC50,"Virco ID V052965, genotype 10I + 54V + 77I + 90M, vs mean IC50 of wild type laboratory HIV strain",6.3 fold
same,Fold change in IC50,"Virco ID V052966, genotype 10I + 54V + 71V + 90M, vs mean IC50 of wild type laboratory HIV strain",28.6 fold
same,Fold change in IC50,"Virco ID V052967, genotype 10I + 54V + 71V + 77I + 90M, vs mean IC50 of wild type laboratory HIV strain",0.6 fold
same,Fold change in IC50,"Virco ID V053358, genotype 33F + 54V + 77I + 90M, vs mean IC50 of wild type laboratory HIV strain",1.3 fold
same,Fold change in IC50,"Virco ID V053831, genotype 33F + 54V, vs mean IC50 of wild type laboratory HIV strain",1.0 fold
same,Fold change in IC50,"Virco ID V053832, genotype 10I + 33F, vs mean IC50 of wild type laboratory HIV strain",0.5 fold
